Results: patent US20220111034A1, “VIRUS COMPOSITIONS” (priority 2019, published 2022)

Assays:
[1] = tested on: JAM-A; test: FD-based AFM single-virus force spectroscopy on JAM-A-coated model surfaces; type: binding; conditions: for change in JAM-A-T3SA− binding or multivalent interactions: 1 mM glycan injected, FIG. 6a-c
Protocol: NHS-PEG27-acetal linkers were used to functionalize AFM tips as described (Gruber. Crosslinkers and Protocols for AFM Tip Functionalization. https://wwwjku.at/institut-fuer-biophysik/forschung/linked, 2018; Wildling et al. Linking of sensor molecules with amino groups to aminofunctionalized AFM tips. Bioconjug. Chem. 2011, vol. 22, 1239-1248). AFM tips (PFQNM-LC and MSCT probes, Bruker) were immersed in chloroform for 10 min, rinsed with ethanol, dried with a stream of filtered nitrogen, cleaned for 10 min using an ultraviolet radiation and ozone (UV-0) cleaner (Jetlight), and immersed overnight in an ethanolamine solution (3.3 g of ethanolamine hydrochloride in 6.6 mL of DMSO). The cantilevers were washed three times with DMSO, and two times with ethanol and dried with nitrogen. To ensure a low grafting density of the linker on the AFM tip, 1 mg of acetal-PEG27-NHS was diluted in 0.5 mL of chloroform with 30 μL of […] (Gruber, supra; Wildling et al., supra). Ethanolamine-coated cantilevers were immersed for 2 h in this solution, washed three times with chloroform, and dried with nitrogen. Cantilevers were then immersed for 10 min in 1% citric acid in milliQ water, washed three times with milliQ water, and dried with nitrogen. Virus solution (80 μL at ˜10^8 to 10^9 particles mL^−1) was pipetted onto the tips placed on Parafilm (Bemis NA) in a small plastic dish stored within an icebox. A freshly prepared solution of NaCNBH3 (2 μL at ˜6% wt. in 0.1 M NaOH(aq)) was gently mixed into the virus solution, and the cantilever chips were gently positioned with the cantilevers extending into the virus drop. The icebox was incubated at 4° C. for 1 h. Then, 5 μL of 1 M ethanolamine solution (pH 8) was gently mixed into the drop to quench the reaction. […]
His6-tagged JAM-A (Bio-Connect Life Science) was immobilized using NTA-His6 binding chemistry, as described (Dupres et al. 2005, supra; Dufrêne. Life at the nanoscale: atomic force microscopy of live cells. Pan Stanford Publishing, 2011). […] The thickness was measured as described for sialic-acid-coated model surfaces.
AFM Nanoscope Multimode 8 (Bruker) was used (Nanoscope software v9.1) to conduct FD-based AFM. Virus-functionalized MSCT-D probes (with spring constants calculated using thermal tune, ranging from 0.024 to 0.043 N m^−1) (Butt & Jaschke. Calculation of thermal noise in atomic-force microscopy. Nanotechnol. 1995, vol. 6, 1-7) were used to record force curves from 5×5 μm arrays in the force-volume (contact) mode. […]

[2] = tested on: Lec2, Lec2-JAM-A, CHO and CHO-JAM-A cells; test: Infection of in vitro cultured cells by reovirus (Example 6); type: cell-based; conditions: co-administered with the virus; for effect on infectivity of T3SA+ towards Lec2-JAM-A and CHO-JAM-A: compared to T3SA+ without glycan
Protocol: T3SA+ and T3SA− reovirus stocks are prepared and purified virions obtained as set forth in Example 1. Lec2, Lec2-JAM-A, CHO and CHO-JAM-A cells are prepared and cultured as set forth in Example 1.
The cells are infected with the reovirus at a suitable multiplicity of infection (MOI) in batch suspensions or in monolayers and infectivity is analysed by an appropriate assay, such as quantification of viral protein expression in infected cells or a plaque assay.

[3] = tested on: Mice; test: Infection of mice by reovirus (Example 7); type: in vivo; conditions: co-administered with the virus

Molecule: CC(=O)N[C@H]1[C@H](O[C@H]2[C@@H](O)[C@@H](CO)O[C@@H](O[C@H]3[C@H](O)[C@@H](O)C(O)O[C@@H]3CO)[C@@H]2O)O[C@H](CO)[C@@H](O[C@@H]2O[C@H](CO)[C@H](O)[C@H](O)[C@H]2O)[C@@H]1O (mixture of isomers) [LNnT, lacto-N-neotetraose, reference compound]
- effect on the overall binding of T3SA+ to JAM-A ([1]; 1 mM glycan, FIG. 5d): had no effect
- effect on infectivity of T3SA+ towards Lec2-JAM-A and CHO-JAM-A [2]: does not affect infectivity
- effect on infectivity of T3SA+ in mice [3]: does not affect infectivity

Molecule: CC(=O)N[C@H]1[C@H]([C@H](O)[C@H](O)CO)OC(O)(C(=O)O)C[C@@H]1O (some centres unmarked) [Neu5Ac, N-acetylneuraminic acid]
- change in T3SA+ISVP-JAM-A multivalent binding behavior ([1]; 1 mM free glycan, FIG. 16): does not induce any change
- change in JAM-A-T3SA− binding or multivalent interactions [1]: does not induce any change
- effect on infectivity of T3SA− towards Lec2-JAM-A or CHO-JAM-A [2]: do not affect infectivity
- effect on infectivity of T3SA+ towards Lec2-JAM-A and CHO-JAM-A [2]: significantly increase infectivity
- effect on infectivity of T3SA+ in mice [3]: significantly increase infectivity
- effect on infectivity of T3SA− in mice [3]: do not affect infectivity

Molecule: sialyl-lacto-N-tetraose a [LSTa]
- change in JAM-A-T3SA− binding or multivalent interactions [1]: does not induce any change
- effect on infectivity of T3SA− towards Lec2-JAM-A or CHO-JAM-A [2]: do not affect infectivity
- effect on infectivity of T3SA+ towards Lec2-JAM-A and CHO-JAM-A [2]: significantly increase infectivity
- effect on infectivity of T3SA+ in mice [3]: significantly increase infectivity
- effect on infectivity of T3SA− in mice [3]: do not affect infectivity
